Laboratory results as given in patent publication US6723716B1, “7-acylamino-3-heteroarylthio-3-cephem carboxylic acid antibiotics and prodrugs thereof” (Essential Therapeutics, Inc., priority 1999, dated 2004).
≈ marks a conversion by molar mass, not a printed value.

Tests used:
S. aureus ATCC29213 = assay: Human serum binding effect: MIC with and without human serum; format: cell-based, Staphylococcus aureus; conditions: 1:1 human serum:MHB
Description: The approximate measurement of the degree of binding of the compound to human serum proteins can be achieved by determination of the effect of the addition of human serum to the medium in which the MIC values against a selected bacterial strain is determined. The ratio of the MIC value obtained in presence of added human serum to the MIC value determined without serum addition was used as a measure of serum binding and the results of such determination are presented below in Table 2.
In addition to the standard MIC determination described above, the staphylococcal strain ATCC29213 is also tested in a ratio 1:1, human serum:MHB to obtain a preliminary estimate of the bioactivity of test compounds in serum: The assay was performed in Human Serum and Mueller-Hinton Broth (HSMHB) with a final bacterial inoculum of 1×10^6 CFU/mL (from an early-log phase culture) and a final volume of 100 μL. Control drugs, including imipenem, vancomycin, dicloxacillin, and new compounds were prepared in double-concentrated Mueller-Hinton broth at a concentration equivalent to 4-fold the desired final concentration. Dilution of compounds were prepared directly in the plates by serial 2-fold dilution in double-concentrated Mueller-Hinton using a multichannel pipette. Positive and negative growth controls were included in each plate. […] The inoculum was prepared by diluting the early log-phase (1 h) culture 1:100 with fresh double-concentrated Mueller-Hinton broth. A volume of 25 μL of the inoculum was added to each well. […] The exact inoculum was determined by applying 10 μl of 10-fold serial dilution of the bacterial suspension on TSA. After overnight incubation at 35° C., colony forming units were manually counted.

[1] = test system: S. aureus ATCC 33593 (Meth^R); assay: Broth microdilution MIC (NCCLS); format: cell-based; conditions: Staphylococcus aureus, ATCC33593
Description: (§1) Compounds were evaluated for antimicrobial activity against a panel of bacterial strains using a broth microdilution assay performed as recommended by the NCCLS (1). The minimum inhibitory concentration (MIC) was defined as the lowest concentration of drug which prevented the growth of the bacteria.
(§2) For this primary panel, the assay was performed in Mueller-Hinton Broth (MHB) with a final bacterial inoculum of 5×10^5 CFU/mL (from an early-log phase culture) and a final volume of 100 μL. Control drugs, including imipenem, vancomycin, Penicillin G, dicloxacillin (vs. MSSA ATCC29213 only), and new compounds were prepared at a concentration equivalent to 2-fold the desired final concentration. Dilution of compounds were prepared directly in the plates by serial 2-fold dilution using a multichannel pipette. Positive and negative growth control were included in each plate.
(§3) The bacterial inocula were prepared as follows. For each strain one isolated colony was used to inoculate a volume of 8 mL of Mueller-Hinton broth and these cultures were incubated overnight (20 h) at 35° C. in a shaking incubator. At the exception of Enterococcus strains, culture were then diluted 1:10 and allowed to grow for an additional one hour at 35° C. in a shaking incubator. The inocula were prepared by diluting the early log-phase (1 h) cultures 1:1000 with fresh Mueller-Hinton broth. E. faecium and E. faecalis were prepared by diluting overnight cultures 1:333 and 1:666, respectively, with fresh Mueller-Hinton broth. A volume of 50 μL of the inocula was added to each well. […] The exact inocula were determined by applying 10 μL of 10-fold serial dilution of the bacterial suspensions on TSA. After overnight incubation at 35° C., colony forming units were manually counted.
(§4) Microtiter plates were incubated during 24 h at 35° C. and were read using a microtiterplate reader (Molecular Devices) at 650 nm as well as by visual observation using a microtiterplate reading mirror.

E. coli ATCC25992 = assay: Broth microdilution MIC (NCCLS); format: cell-based; conditions: Escherichia coli
Description: as §1, §2, §3, §4

[2] = test system: S. aureus Spain #356 (Meth^R); assay: Broth microdilution MIC (NCCLS); format: cell-based; conditions: Staphylococcus aureus, 24 h
Description: as §1, §2, §3, §4

[3] = test system: S. aureus PC1 (Meth^S)(lac^+); assay: Broth microdilution MIC (NCCLS); format: cell-based; conditions: Staphylococcus aureus
Description: as §1, §2, §3, §4

[4] = test system: S. aureus ATCC 13709 (Meth^S); assay: Broth microdilution MIC (NCCLS); format: cell-based; conditions: Staphylococcus aureus, ATCC13709, S. aureus ATCC 13709 (Meth^S); read-out: MIC
Description: as §1, §2, §3, §4

E. faecium VanA (Van^R) = assay: Broth microdilution MIC (NCCLS); format: cell-based; conditions: Enterococcus faecium
Description: as §1, §2, §3, §4

E. faecalis VanB (Van^R) = assay: Broth microdilution MIC (NCCLS); format: cell-based; conditions: Enterococcus faecalis
Description: as §1, §2, §3, §4

[5] = test system: S. haemolyticus 05 (Meth^R); assay: Broth microdilution MIC (NCCLS); format: cell-based; conditions: Staphylococcus haemolyticus
Description: as §1, §2, §3, §4

E. faecium ATCC 35667 = assay: Broth microdilution MIC (NCCLS); format: cell-based; conditions: Enterococcus faecium, ATCC35667
Description: as §1, §2, §3, §4

P. aeruginosa ATCC 27853 = assay: Broth microdilution MIC (NCCLS); format: cell-based; conditions: Pseudomonas aeruginosa, ATCC27853
Description: as §1, §2, §3, §4

S. aureus ATCC 29213 = assay: Broth microdilution MIC (NCCLS); format: cell-based; conditions: Staphylococcus aureus, ATCC29213; S. aureus ATCC 29213; Mueller-Hinton broth, 24 h at 35° C.; read-out: MIC
Description: as §1, §2, §3, §4

E. faecalis ATCC 29212 = assay: Broth microdilution MIC (NCCLS); format: cell-based; conditions: Enterococcus faecalis, ATCC29212
Description: as §1, §2, §3, §4

[6] = test system: S. aureus 76 (Meth^R)(lac^+); assay: Broth microdilution MIC (NCCLS); format: cell-based; conditions: Staphylococcus aureus
Description: as §1, §2, §3, §4

[7] = In vitro stability of compounds in rat serum; format: in vitro ADME; conditions: Table 2 data
Description: In general, compounds from the class of 7-acylamino-3-heteroarylthio-3-cephem carboxylic acids have higher chemical reactivity and lower stability towards chemical or enzymatic decomposition than most typical cephalosporins. […] Results shown in Table 2 represent percentage loss of the initial amount of cephalosporin compound upon 60 min incubation in rat serum.
Procedure for measuring degree of degradation of cephalosporin compounds in rat serum was as follows:
Fresh control rat serum (heparinized and stored frozen) is preincubated at 37° C. for 15 min in a shaking water bath. pH is measured using test strips. 25 μL of a 2 mg/mL solution cephalosporin compound (in water) of is then added to each matrix to make 1000 μL. Solutions were incubated at 37° C. 100 ul of solution was taken out at time=0, 15, 30, and 60 min post dose and added 200 μL 4% trichloroacetic acid, vortexed, and centrifuged for 10 min at 14,000 rpm in an Eppendorf microcentrifuge. 25 μL of each supernatant was injected onto HPLC. Experiment was repeated using 25 μL of a 0.2 mg/mL cephalosporin compound. Degradation is measured as the percentage of HPLC peak area at time t relative to peak area at time 0.
HPLC conditions: Beckman Ultrasphere C18 column. 5 u. 4.6 mm×25 cm. 1 mL/min of 95% 0.1 M ammonium acetate, pH 6, 5% ACN going to 75% buffer/organic over 20 min. UV monitored at 254 and 280 nm.

[8] = test system: S. aureus ATCC 13709 (Smith diffuse); assay: Murine lethal bacteremic peritonitis (septicemia) efficacy; format: in vivo, mice; conditions: Staphylococcus aureus, ATCC13709, sc, read-out: Efficacy in murine septicemia % survival
Description: 10 mice/group were injected intraperitoneally with 2.98×10^7 cfu S. aureus ATCC 13709 (Smith diffuse) and treated at 0 and 2 hrs post-challenge with serial two-fold doses of new cephalosporin antibiotic, imipenem and vancomycin subcutaneously in order to determine the ED50. Male Swiss-Webster mice weighing originally 24.2-26.1 g were obtained from Charles Rivers Labs, Hollister, Calif. Mice were housed 10 per cage and given free access to water and mouse chow.
Staphylococcus aureus ATCC 13709 (Smith diffuse) was grown overnight at 37° C. in Brain-heart Infusion broth (BHIB). The following morning, it was subcultured to fresh BHIB and incubated for 4-5 h at 37° C. The log-phase growth cells were washed once with physiological saline and adjusted to the desired concentration by correlation of absorbency at OD 600 nm with predetermined plate counts (NCCLS, 1994). The cell suspension was mixed with an equal volume of sterile 14% hog-gastric mucin (2). Inoculum was kept in an ice bath until used (<1 h).
Mice were challenged via an injection of 0.5 mL bacterial suspension intraperitoneally. The bacterial challenge was 2.98×10^7 cfu/mouse.
Imipenem (Primaxin IV; Lot 7294A), vancomycin (Vancocin; Lot 8MU60W), and new cephalosporin antibiotic were prepared by serial two-fold dilutions to concentrations of 0.078-0.005 mg/mL, 1.2-0.075 mg/mL, 0.3-0.02 mg/mL, 0.3-0.02 mg/mL and 0.3-0.02 mg/mL respectively in sterile water (1). All antibiotics were administered subcutaneously in 0.1 mL volumes at 0 and 2 hours post-challenge. Concentrations of all compounds are based on the weight of the bioactive ingredients.
The 50% effective dose (ED50) was calculated by the probit method (3) utilizing a program entitled Probit (Nycomed-Salutar).

Row | SMILES | Human serum binding effect (ratio of MIC value determined with and without human serum added) (S. aureus ATCC29213) | MIC [1] | MIC (E. coli ATCC25992) | MIC [2] | MIC [3] | MIC [4] | MIC (E. faecium VanA (Van^R)) | MIC (E. faecalis VanB (Van^R)) | MIC [5] | MIC (E. faecium ATCC 35667) | MIC (P. aeruginosa ATCC 27853) | MIC (S. aureus ATCC 29213) | MIC (E. faecalis ATCC 29212) | MIC [6] | stability of compounds in rat serum [7] | responders at 0.039 mg/kg ([8]; dose 0.039 mg/kg s.c. at 0 and 2 h post-challenge) | responders at 0.078 mg/kg ([8]; dose 0.078 mg/kg s.c. at 0 and 2 h post-challenge) | responders at 0.156 mg/kg ([8]; dose 0.156 mg/kg s.c. at 0 and 2 h post-challenge) | responders at 0.312 mg/kg ([8]; dose 0.312 mg/kg s.c. at 0 and 2 h post-challenge) | responders at 0.625 mg/kg ([8]; dose 0.625 mg/kg s.c. at 0 and 2 h post-challenge)
1 | NCCSc1nnc(SC2=C(C(=O)O)N3C(=O)[C@@H](NC(=O)/C(=N\O)c4nc(N)sc4Cl)[C@H]3SC2)s1 [Cmpd 1, (7R)-7-[(Z)-2-(2-amino-5-chlorothiazol-4-yl)-2-(hydroxyimino)acetamido]-3-(2-aminoethylthio-1,3,4-thiadiazol-5-ylthio)-3-cephem-4-carboxylic acid] | 64 | 1 mg/L (≈ 1.68 µM) | 0.5 mg/L (≈ 0.84 µM) | 1 mg/L (≈ 1.68 µM) | 0.25 mg/L (≈ 0.42 µM) | 0.13 mg/L (≈ 0.218 µM) | 2 mg/L (≈ 3.36 µM) | 0.25 mg/L (≈ 0.42 µM) | 1 mg/L (≈ 1.68 µM) | 0.5 mg/L (≈ 0.84 µM) |  |  |  |  |  |  |  |  |  | 
2 | Cc1nc(CSCCN)c(SC2=C(C(=O)O)N3C(=O)[C@@H](NC(=O)/C(=N\O)c4cccc(N)n4)[C@H]3SC2)s1 [Cmpd 2, (7R)-7-[(Z)-2-(2-aminopyrid-6-yl)-2-(hydroxyimino)acetamido]-3-[4-(2-aminoethylthiomethyl)-2-methyl-1,3-thiazol-5-ylthio]-3-cephem-4-carboxylic acid] | 4 |  | 32 mg/L (≈ 55 µM) | 2 mg/L (≈ 3.44 µM) | 0.25 mg/L (≈ 0.43 µM) | 0.13 mg/L (≈ 0.223 µM) | 4 mg/L (≈ 6.88 µM) | 1 mg/L (≈ 1.72 µM) | 4 mg/L (≈ 6.88 µM) | 4 mg/L (≈ 6.88 µM) | > 32 mg/L | 0.25 mg/L (≈ 0.43 µM) | 0.25 mg/L (≈ 0.43 µM) | 4 mg/L (≈ 6.88 µM) |  |  |  |  |  | 
3 | NCCSCc1csc(SC2=C(C(=O)O)N3C(=O)[C@@H](NC(=O)/C(=N\O)c4cccc(N)n4)[C@H]3SC2)n1 [Cmpd 4, (7R)-7-[(Z)-2-(2-aminopyrid-6-yl)-2-(hydroxyimino)acetamido]-3-[4-(2-aminoethylthiomethyl)-1,3-thiazol-2-ylthio]-3-cephem-4-carboxylic acid] | 3 | 1 mg/L (≈ 1.76 µM) | 4 mg/L (≈ 7.05 µM) | 2 mg/L (≈ 3.52 µM) | 0.13 mg/L (≈ 0.229 µM) | 0.13 mg/L (≈ 0.229 µM) |  | 0.5 mg/L (≈ 0.881 µM) |  | 0.25 mg/L (≈ 0.44 µM) |  | 0.13 mg/L (≈ 0.229 µM) | 0.25 mg/L (≈ 0.44 µM) | 2 mg/L (≈ 3.52 µM) |  |  |  |  |  | 
4 | NCCSCc1ccncc1SC1=C(C(=O)O)N2C(=O)[C@@H](NC(=O)/C(=N\O)c3nsc(N)n3)[C@H]2SC1 [Cmpd 27, (7R)-7-[(Z)-2-(5-amino-1,2,4-thiadiazol-3-yl)-2-(hydroxyimino)acetamido]-3-[4-(2-aminoethylthiomethyl)pyrid-3-ylthio]-3-cephem-4-carboxylic acid] | 4 |  |  |  |  | 0.25 mg/L (≈ 0.44 µM) |  |  |  |  |  |  |  |  | improved stability |  |  |  |  | 
5 | C[C@@H](O)[C@H]1C(=O)N2C(C(=O)O)=C(SCCN=CN)C[C@H]12 [Imipenem, reference compound] | 2 |  |  |  |  | 0.008 mg/L (≈ 0.0267 µM) |  |  |  |  |  |  |  |  |  | 20% | 40% | 100% | 100% | 100%
